Test results from patent US20160279079A1, “COMPOSITIONS AND METHODS FOR TREATING BONE DISEASES” (INDIANA UNIVERSITY RESEARCH AND TECHNOLOGY CORPORATION, priority 2013, published 2016).
Entries after “also recorded” stand apart in the source; their conditions may differ.

Experiments:
MC3T3 E1-14 cells = test: Mineralization assay (Alizarin Red S staining); type: cell-based, mouse; settings: 3-week incubation in an osteogenic medium
Protocol: METHOD EXAMPLE. Mineralization assay. Mineralization of extracellular matrix was assayed by Alizarin Red S staining. MC3T3-E1 cells were plated in 6-well plates. When cells were confluent, 50 μg/ml of ascorbic acid (Wako Chemicals, Richmond, Va., USA) and 5 mM β-glycerophosphate (Sigma) were added. The medium was changed every other day, and staining was conducted after 3 week. Cells were washed with PBS twice and fixed with 60% isopropanol for 1 min at room temperature, followed by rehydration with distilled water for 3 min at room temperature. They were stained with 1% Alizarin red S (Sigma) for 3 min and washed with distilled water.
(§1) METHOD EXAMPLE. Enhanced mineralization of MC3T3 E1-14 cells by salubrinal. Prior to examining the effects of salubrinal on osteoclastogenesis, its effects on development of osteoblasts was tested, focusing on cell viability, phosphorylation of eIF2α (p-eIF2α), expression of ATF4 and osteocalcin, and matrix mineralization. […] The enhanced mineralization was also observed in non-clonal MC3T3 E1 cells (Supplementary FIG. S1).

p-ERK = test: Western immunoblotting, p-ERK in RAW264.7 cells; type: cell-based, mouse; settings: 20 μM salubrinal
Protocol: (§2) METHOD EXAMPLE. Western Immunoblotting. Cells were lysed in a radioimmunoprecipitation assay (RIPA) buffer containing protease inhibitors (Santa Cruz Biotechnology, Santa Cruz, Calif., USA) and phosphatase inhibitors (Calbiochem, Billerica, Mass., USA). Isolated proteins were fractionated using 10-15% SDS gels and electro-transferred to Immobilon-P membranes (Millipore, Billerica, Mass., USA). The membrane was incubated for 1 h with primary antibodies followed by 45 min incubation with goat anti-rabbit or anti-mouse IgG conjugated with horseradish peroxidase (Cell Signaling, Danvers, Mass., USA). We used antibodies against ATF4, NFATcl (Santa Cruz), p-eIF2α (Thermo Scientific, Waltham, Mass., USA), eIF2α, caspase 3, cleaved caspase 3, p38 and p-p38 mitogen activated protein kinase (MAPK), extracellular signal-regulated kinase (ERK) and p-ERK, nuclear factor kappa B (NFκB) p65 and p-NFκB p65 (Cell Signaling), and β-actin (Sigma). Protein levels were assayed using a SuperSignal west femto maximum sensitivity substrate (Thermo Scientific), and signal intensities were quantified with a luminescent image analyzer (LAS-3000, Fuji Film, Tokyo, Japan).
(§3) METHOD EXAMPLE. Temporal profile of p-eIF2α and NFATcl. […] Note that the normalized level of “1” in FIG. 6C was defined as the level for the cells that were not treated with RANKL without administration of guanabenz.

cleaved caspase 3 = test: Western immunoblotting, cleaved caspase 3 in MC3T3 E1-14 cells; type: cell-based, mouse; settings: 10 μM salubrinal, 24 h
Protocol: as §2
METHOD EXAMPLE. Enhanced mineralization of MC3T3 E1-14 cells by salubrinal. […]

[1] = tested on: MC3T3 E1 mouse osteoblast-like cells (clone 14); test: Cell mortality and proliferation of MC3T3 E1-14 cells; type: cell-based; settings: 5-20 μM salubrinal
Protocol: METHOD EXAMPLE. Cell culture. MC3T3 E1 mouse osteoblast-like cells (clone 14—MC3T3 E1-14; and no clonal cells in supplementary figures), and RAW264.7 mouse pre-osteoclast (monocyte/macrophage) cells were cultured in αMEM containing 10% fetal bovine serum and antibiotics (50 units/ml penicillin, and 50 μg/ml streptomycin; Life Technologies, Grand Island, N.Y., USA). Cells were maintained at 37° C. and 5% CO2 in a humidified incubator. Cell mortality and live cell numbers were determined 24 h after the treatment with 20 ng/ml RANKL (PeproTech, Rocky Hills, N.C., USA) in response to 0.1-20 μM salubrinal or 1-20 μM guanabenz acetate (Tocris Bioscience, Ellisville, Mo., USA). Cells were stained with trypan blue and the numbers of live and dead cells were counted using a hemacytometer.
as §1

[2] = tested on: tartrate-resistant acid phosphatase (TRAP); test: Quantitative real-time PCR, TRAP mRNA in RAW264.7 cells; type: cell-based, mouse; settings: for expression of TRAP: absence of RANKL administration
Protocol: METHOD EXAMPLE. Quantitative real-time PCR. Total RNA was extracted using an RNeasy Plus mini kit (Qiagen, Germantown, Md., USA). Reverse transcription was conducted with high capacity cDNA reverse transcription kits (Applied Biosystems, Carlsbad, Calif., USA), and quantitative real-time PCR was performed using ABI 7500 with Power SYBR green PCR master mix kits (Applied Biosystems). We evaluated mRNA levels of ATF4, Osteocalcin (OCN), NFATcl, c-Fos, tartrate-resistant acid phosphatase (TRAP), and osteoclast-associated receptor (OSCAR) with the PCR primers listed in Table 1. GAPDH was used for internal control. The relative mRNA abundance for the selected genes with respect to the level of GAPDH mRNA was expressed as a ratio of Streated/Scontrol, where Streated=mRNA level for the cells treated with chemical agents, and Scontrol=mRNA level for control cells.
METHOD EXAMPLE. Partial suppression of mRNA levels of NFATcl, c-Fos, TRAP, and OSCAR by salubrinal. […] On day 2, for instance, the RANKL-driven increase was 9.4±0.5 fold (NFATcl), 1.9±0.1 fold (c-fos), 165±4.2 fold (TRAP), and 467±22 fold (OSCAR). The reduction by 20 μM salubrinal was 46% (NFATcl), 32% (c-fos), 35% (TRAP), and 21% (OSCAR) (FIG. 5A).
METHOD EXAMPLE. Reduction of RANKL-induced NFATcl, c-Fos, TRAP, and OSCAR by guanabenz. […] The normalized level of “1” was defined as the level for the cells that were not treated with RANKL without administration of guanabenz.

p-p38 MAPK = test: Western immunoblotting, p-p38 MAPK in RAW264.7 cells; type: cell-based, mouse; settings: 20 μM salubrinal
Protocol: as §2, §3

p-NFκB = test: Western immunoblotting, p-NFκB in RAW264.7 cells; type: cell-based, mouse; settings: 20 μM salubrinal
Protocol: as §2, §3

Compound | mineralization (Alizarin red S staining area) (MC3T3 E1-14 cells) | phosphorylation level of ERK (p-ERK) | expression level of cleaved caspase 3 (cleaved caspase 3) | cell mortality [1] | cell proliferation [1] | reduction of TRAP mRNA level ([2]; 20 μM salubrinal, day 2 after RANKL) [%] | TRAP mRNA level ([2]; 0.1-1 μM salubrinal, with RANKL, day 2 and day 4) | expression of TRAP [2] | phosphorylation level of p38 MAPK (p-p38 MAPK) | phosphorylation level of NFκB (p-NFκB) | TRAP mRNA level ([2]; 20 μM guanabenz, 2 days after RANKL) | TRAP mRNA level ([2]; 5 and 10 μM guanabenz, 2 days after RANKL)
O=C(/C=C/c1ccccc1)NC(NC(=S)Nc1cccc2cccnc12)C(Cl)(Cl)Cl (stereo not shown) [salubrinal] | enhanced mineralization of MC3T3 E1-14 cells in a dose dependent manner | did not significantly alter; also recorded: no detectable changes | did not elevate | did not increase cell mortality or inhibit cell proliferation | did not increase cell mortality or inhibit cell proliferation | 35 | did not contribute to significant reduction | did not significantly alter | did not significantly alter; also recorded: no detectable changes | did not significantly alter; also recorded: no detectable changes | – | –
N=C(N)N/N=C/c1c(Cl)cccc1Cl [guanabenz] | – | – | – | – | – | – | – | did not significantly alter | – | – | reduced | effective in reducing
